Results as given in US5428031A, “Methods of treating cardiac arrhythmia” (priority 1993, dated 1995).

Tests used:
[1] = target: T1, IKs (slowly activating delayed rectifier K+ current) (Cavia porcellus, UniProt O70344); assay: cell-based; assay type: cell-based, guinea pig
T1 construct: Guinea pig ventricular myocytes were isolated; endogenous in cells; host or cells: isolated guinea pig ventricular myocytes
Procedure: Current amplitude is measured as the difference from the initial instantaneous current level following the capacitance discharge after changing the transmembrane voltage from -50 mV to +50 mV, to the current level at the end of the 1 second voltage step. Normally, an increase in the current amplitude occurs as a function of time and voltage during depolarization of the cardiac cell membrane and this increasing current has been defined as the delayed rectifier K^+ current (IK). […] IKs current occurs as a consequence of time- and voltage-dependent opening of ionic channels or pores in the cardiac cell membrane that allow the relatively selective flow of potassium ions (K^+) from the inside to the outside of the cell, that is, down the voltage and concentration gradient for K^+ ions that is inherent in cardiac cells. Thus, block of the IKs current ultimately reflects block of certain ion channels or pores in the cardiac cell membrane. However, the single pores or channels thought to underlie the IKs current have yet to be measured or identified at the single channel level.
Guinea pig ventricular myocytes were isolated using a modification of the procedure described by Mitra R and Morad M., "A Uniform Enzymatic Method for Dissociation of Myocytes from Hearts and Stomachs of Nertilorates", Am. J. Physiol. […] Excised hearts were perfused through the aorta (retrograde fashion) at a rate of 10 ml/min with oxygenated, warmed (37° C.) solutions described below. […] The head was then perfused with the same nominally Ca^2+ -free solution containing 150 units/ml Type II collagenase (Worthington) and 0.5 units/ml Type XIV protease (Sigma) for 8 minutes. This perfusate was followed by a Tyrode's solution containing 0.2 mM CaCl2 (without enzymes) for 5 minutes. The digested ventricles were cut into small pieces and gently shaken until cells were visibly dispersed. The cells were stored at room temperature until use, within 8 hours after isolation.
The suction microelectrode technique described by Giles, W. R. and Shibata, E. F., "Voltage clamp of bull-frog cardiac pacemaker cells: a quantitative, analysis of potassium currents". J. Physiol. […] Microelectrodes were made by using a two stage puller from square bore (1.0 mm o.d.) borosilicate capillary tubing. […] After establishing whole-cell recording mode, negative pressure was maintained on the pipette using a 1 ml gas-tight syringe attached via air tight tubing to the suction port of the microelectrode holder. This minimized dialysis of the cell with the pipette solution.
To record K^+ currents, the cells were bathed in a Ca^2+ -free Tyrode's :solution containing […] nisoldipine. […] A List EPC-7 clamp amplifier was used to voltage clamp the isolated cells. […] A variety of voltage pulse protocols were used to measure Ca^2+ current and three types of K^+ currents: inward rectifier (IK1), rapidly activating delayed rectifier (IKr) and the slowly activating delayed rectifier (IKs). Sanguinetti M. C. and Jurkiewicz, N. K., "Two components of cardiac delayed rectifier K^+ current: Differential sensitivity to block by Class III antiarrhythmic agents". […] Data was analyzed as % block from control membrane currents.
Nisoldipins was prepared as a 4 mM stock solution in polyethylne glycol 200. Compounds tested in this series were prepared as 10 mM stock solutions in polyethylene glycol 400 or dimethyl sulfoxide.

ICa (Ca2+ current) = assay: voltage clamp measurement of Ca2+ current in isolated guinea pig ventricular myocytes; assay type: cell-based; details: 0.1 μM
Procedure: Guinea pig ventricular myocytes were isolated using a modification of the procedure described by Mitra R and Morad M., "A Uniform Enzymatic Method for Dissociation of Myocytes from Hearts and Stomachs of Nertilorates", Am. J. Physiol. 249:H1056-60 (1985). Excised hearts were perfused through the aorta (retrograde fashion) at a rate of 10 ml/min with oxygenated, warmed (37° C.) solutions described below. The heart was initially perfused for 7 minutes with a Tyrode's solution containing, in mM: 132 NaCl, 4 KCl, 1.2 MgCl2, 10 HEPES (formal name N-2-Hydroxyethylpiperazine-N-2-ethanesulfonic acid), 5 glucose, pH=7.2. The head was then perfused with the same nominally Ca^2+ -free solution containing 150 units/ml Type II collagenase (Worthington) and 0.5 units/ml Type XIV protease (Sigma) for 8 minutes. This perfusate was followed by a Tyrode's solution containing 0.2 mM CaCl2 (without enzymes) for 5 minutes. The digested ventricles were cut into small pieces and gently shaken until cells were visibly dispersed. […]
The suction microelectrode technique described by Giles, W. R. and Shibata, E. F., "Voltage clamp of bull-frog cardiac pacemaker cells: a quantitative, analysis of potassium currents". […]
To record K^+ currents, the cells were bathed in a Ca^2+ -free Tyrode's :solution containing […] nisoldipine. […] Data was analyzed as % block from control membrane currents. […]

| SMILES | selective block of IKs ([1]; selective: 50% block of IKs at 1 μM or less and at least 10 fold lower than for IKr and/or IK1) | IC50 [1] | block of IKs ([1]; 5 μM) | effect on ICa (ICa (Ca2+ current)) |
| --- | --- | --- | --- | --- |
| CN1C(=O)[C@H](NC(=O)/C=C/c2ccc(Cl)cc2Cl)N=C(c2ccccc2)c2ccccc21 [Example 26, E-(+)-N-[(3R)-2,3-Dihydro-1-methyl-2-oxo-5-phenyl-1H-1,4-benzo-diazepin-3-yl]-3-(2,4-dichlorophenyl)-2-propenamide] | selective blocker of IKs |  |  |  |
| Cc1cccc(NC(=O)N[C@@H]2N=C(c3ccccc3)c3ccccc3N(C)C2=O)c1 [Compound 4, (R)-N-(2,3-dihydro-1-methyl-2-oxo-5-phenyl-1H-1,4-benzodiazepin-3-yl)-N'-(3-methylphenyl)urea] |  | 0.215 µM | Complete block | Little or no effect |
